PMC8692993, “PPARα and PPARγ activation is associated with pleural mesothelioma invasion but therapeutic inhibition is ineffective” (iScience, 2021)

Tested on: JU77 human mesothelioma cell line
Test: Soft agar colony formation assay
Type: cell-based
Conditions: JU77, GW6471 0.5-8 μM, p <0.05
Experimental: Cells were incubated with different concentrations of GW6471 (from 0.5 μM to 8 μM) for a soft agar colony formation assay ([Horibata et al., 2015]). Briefly, 3% 2-hydroxyethyl agarose (agarose, A4018; Sigma-Aldrich, Australia) was prepared as stock solution. The bottom layer was prepared by incubating 20% agarose gel in R10 complete medium, RPMI 1640 (Invitrogen) supplemented with 10% foetal calf serum (FCS; Life Technologies), 20 mM HEPES (Sigma-Aldrich), 0.05 mM 2-mercaptoethanol (pH 7.2; Merck, Kilsyth, Australia), 60 μg/mL penicillin (Life Technologies), 50 μg/mL gentamicin (David Bull Labs), for a final concentration of 0.6%, 2mL per well, at 4°C for 1 h to allow the mixture to solidify, then incubating at 37°C for at least 30 min before seeding the cells. The cell-containing layer (10% agarose gel in R10 complete medium for a final concentration of 0.3%, 1 mL per well) was prepared with a concentration of 1,000 cells/mL. 1 mL of cells was then transfer to each well. […]
Colony counting was performed by adding 1 mL of 0.005% crystal violet (C0775; Sigma-Aldrich, Australia) in PBS on top of each well and incubating at room temperature for 24 h. Pictures were taken and colonies counted with ImageJ (v1.52a).

Structure (SMILES): CCC(=O)NC[C@H](Cc1ccc(OCCc2nc(-c3ccccc3)oc2C)cc1)N/C(C)=C\C(=O)c1ccc(C(F)(F)F)cc1 [GW6471]
- Number of colonies formed: significant reduction in the number of colonies formed
